# Source: PubChem BioAssay AID1208 (EPA DSSTox, 2008)
# Calls of active or inactive are those of the source.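 How the source made its calls: active means at least one rat sex group has a carcinogenic potency value and tumor site recorded; inconclusive means only rat studies were judged inadequate by the national testing program; inactive means no potency or tumor site, with negative rat experiments.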
# Test system: rat chronic carcinogenicity bioassay, TD50
# Test: DSSTox (CPDBAS) Carcinogenic Potency Database Summary Rat Bioassay Results
# Settings: for Potency: stronger effect = lower value; for outcome: TD50_Rat_Note: no positive results
# How it was run: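 Chronic long-term rat cancer bioassays from literature and NCI/NTP, taking the most positive result per sex. TD50 in mmol converted to a 1–100 Activity Score from log10(1/TD50). Mixtures lacking TD50 scored 50.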
# [1] = TargetSites_Rat_Female: no positive results
# [2] = TD50_Rat_Note: TD50 is harmonic mean of more than one positive test, TargetSites_Rat_Female: stomach
# [3] = TD50_Rat_Note: TD50 is harmonic mean of more than one positive test, TargetSites_Rat_Female: liver
# [4] = TD50_Rat_Note: positive test results only by intraperitoneal or intravenous injection
smiles,measurement,setting,value
Clc1cc2c(c(Cl)c1Cl)Oc1c(cc(Cl)c(Cl)c1Cl)O2,Potency,TargetSites_Rat_Female: liver,0.000596 mg/kg/day
OCC(CO)N[C@H]1C[C@](O)(CO)[C@@H](O)[C@H](O)[C@H]1O,outcome,[1],inactive; no positive results
CC(C(O)c1ccccc1)N(C)N=O (configuration not stated),Potency,,95.2 mg/kg/day
c1ccncc1,Potency,[1],67.3 mg/kg/day
CC(C)N=[N+]([O-])C(C)C,Potency,,0.00268 mg/kg/day
CC(=O)c1ccc(S(=O)(=O)NC(=O)NC2CCCCC2)cc1,outcome,[1],inactive; no positive results
CCCCOC(=O)c1ccccc1C(=O)OCc1ccccc1,Potency,TargetSites_Rat_Female: no positive results- CPDB evaluation based on NCI Technical Report,1040 mg/kg/day
CC=O,Potency,"TD50_Rat_Note: TD50 is harmonic mean of more than one positive test, TargetSites_Rat_Female: nasal cavity",153 mg/kg/day
Cc1ccc(N)cc1,outcome,,inactive; no positive results
O=c1[nH]c(=O)n(C2CCCO2)cc1F (configuration not stated),outcome,[1],inactive; no positive results
CO[C@@]12[C@H](COC(N)=O)C3=C(C(=O)C(C)=C(N)C3=O)N1C[C@@H]1N[C@@H]12,Potency,"TD50_Rat_Note: positive test results only by intraperitoneal or intravenous injection, TD50 is harmonic mean of more than one positive, TargetSites_Rat_Female: peritoneal cavity",0.00102 mg/kg/day
C=CCOc1ccccc1OCC(O)CNC(C)C (configuration not stated),outcome,[1],inactive; no positive results
Nc1ccc(N)cc1,outcome,[1],inactive; no positive results
O=[N+]([O-])c1ccc(-c2cscn2)o1,Potency,"TargetSites_Rat_Female: mammary gland, stomach",7.68 mg/kg/day
C[C@]12CC[C@H]3C(=CCc4cc(OS(=O)(=O)O)ccc43)[C@@H]1CCC2=O,outcome,[1],inactive; no positive results
O=C1CCO1,Potency,[2],1.46 mg/kg/day
NC(=O)N(CC(=O)O)N=O,Potency,"TD50_Rat_Note: TD50 is harmonic mean of more than one positive test, greater than ten-fold variation among TD50 values for positive res, TargetSites_Rat_Female: mammary gland, small intestine",4.31 mg/kg/day
O=NN1CCC(=O)NC1=O,Potency,[3],0.0983 mg/kg/day
CN(C)C=O,outcome,[1],inactive; no positive results
NC(N)=Nc1nc(CSCCNc2nsnc2N)cs1,Potency,[2],4990 mg/kg/day
CCCCCCCCCCCCC(=O)COC1=C(O)C(=O)O[C@@H]1[C@@H](O)CO,outcome,[1],inactive
C[C@H]1C(=O)O[C@@H]2CCN3CC=C(COC(=O)[C@](C)(O)[C@]1(C)O)[C@H]23,Potency,TD50_Rat_Note: TD50 is harmonic mean of more than one positive test,0.94 mg/kg/day
OCl,outcome,[1],inactive; no positive results
[N-]=[N+]=[N-],outcome,[1],inactive; no positive results
CC(=O)O[C@@H]1[C@@H](O)C2OC3C=C(C)C(=O)C(O)[C@@]3(CO)[C@]1(C)[C@]21CO1 (some centres not stated),outcome,,inactive; no positive results
COc1ccc2nc(S(=O)Cc3ncc(C)c(OC)c3C)[nH]c2c1 (configuration not stated),Potency,"TD50_Rat_Note: TD50 is harmonic mean of more than one positive test, greater than ten-fold variation among TD50 values for positive res, TargetSites_Rat_Female: stomach",119 mg/kg/day
Cn1c(=O)c2c(ncn2C)n(C)c1=O,outcome,[1],inactive; no positive results
CCCCC1C(=O)N(c2ccccc2)N(c2ccccc2)C1=O,Potency,TargetSites_Rat_Female: kidney,1160 mg/kg/day
CC(CCl)OC(C)CCl (configuration not stated),outcome,[1],inactive; no positive results
NC(=S)C(N)=S,outcome,[1],inactive
CC(C)NCC(O)c1ccc(NS(C)(=O)=O)cc1 (configuration not stated),outcome,[1],inactive; no positive results
Cc1cn([C@H]2C[C@H](N=[N+]=[N-])[C@@H](CO)O2)c(=O)[nH]c1=O,Potency,TargetSites_Rat_Female: vagina,11600 mg/kg/day
O=C1C=C(N2CC2)C(=O)C(N2CC2)=C1N1CC1,Potency,[4],0.00504 mg/kg/day
O=[N+]([O-])c1ccc(-c2cnc3ccccn23)o1,Potency,"TD50_Rat_Note: TD50 is harmonic mean of more than one positive test, TargetSites_Rat_Female: esophagus, kidney, mammary gland, stomach",13.6 mg/kg/day
CCOP(=S)(OCC)Oc1cc(C)nc(C(C)C)n1,outcome,[1],inactive; no positive results
O=NN(CCO)CCO,Potency,"TD50_Rat_Note: TD50 is harmonic mean of more than one positive test, greater than ten-fold variation among TD50 values for positive res, TargetSites_Rat_Female: esophagus, kidney, liver, nasal cavity",3.17 mg/kg/day
N#CN=C(N)N,outcome,[1],inactive; no positive results
O=C/C=C/O,Potency,"TD50_Rat_Note: TD50 is harmonic mean of more than one positive test, TargetSites_Rat_Female: thyroid gland",122 mg/kg/day
C[C@@H]1CCCCN1N=O,Potency,TargetSites_Rat_BothSexes: nervous system,20.4 mg/kg/day
NC(=S)NNC(N)=S,outcome,[1],inactive; no positive results
CCCCCC(/C=C/C=C\CCCCCCCC(=O)OC)OO (configuration not stated),outcome,,inactive; no positive results
[Na+],outcome,,inactive; no positive results
CC(=O)Nc1ccc(C(=O)CCl)cc1,outcome,[1],inactive; no positive results
O=[N+]([O-])c1ccc(-c2nc(N3CCOCC3)c3ccccc3n2)s1,Potency,TargetSites_Rat_Female: all tumor bearing animals,5.03 mg/kg/day
CCCCCCCCCCCCCCN(C)N=O,Potency,TD50_Rat_Note: harmonic mean of TD50 includes a value for upper 99% confidence limit from study with 100% tumor incidence but no lifeta,1.65 mg/kg/day
Cc1cccn2c1nc1ccc(N)nc12,Potency,"TD50_Rat_Note: TD50 is harmonic mean of more than one positive test, TargetSites_Rat_Female: clitoral gland, ear Zymbals gland, large intestine, liver, nervous system, small intestine",4.69 mg/kg/day
O=C1OC(C(O)CO)C(O)=C1O (configuration not stated),outcome,,inactive; no positive results
Nc1c(Cl)cc(Cl)cc1Cl,outcome,,inactive; no positive results
COP(=O)(OC)C(O)C(Cl)(Cl)Cl (configuration not stated),outcome,TargetSites_Rat_BothSexes: no positive results,inactive
FCCl,Potency,[2],27.5 mg/kg/day
CC(=O)NCc1nc(-c2ccc([N+](=O)[O-])o2)no1,Potency,"TD50_Rat_Note: no positive results are statistically significant, TargetSites_Rat_Female: kidney, lung",59.6 mg/kg/day
ClC(Cl)Cl,Potency,[3],262 mg/kg/day
CCCCCCCCCCC(C)c1ccc(S(=O)(=O)O)cc1 (configuration not stated),outcome,[1],inactive; no positive results
S=P(N1CC1)(N1CC1)N1CC1,Potency,"TD50_Rat_Note: positive test results only by intraperitoneal or intravenous injection, TD50 is harmonic mean of more than one positive, TargetSites_Rat_Female: ear Zymbals gland",0.164 mg/kg/day
COc1ccc(CCN2CCC(Nc3nc4ccccc4n3Cc3ccc(F)cc3)CC2)cc1,outcome,[1],inactive; no positive results
O=C1O[C@H]([C@H](O)CO)C(O)=C1O,outcome,[1],inactive; no positive results
CCc1ccccc1,Potency,"TD50_Rat_Note: TD50 is harmonic mean of more than one positive test, greater than ten-fold variation among TD50 values for positive res, TargetSites_Rat_Female: Maltoni head cancers, kidney",72.6 mg/kg/day
O=C1c2ccccc2C(=O)N1SC(Cl)(Cl)Cl,outcome,[1],inactive; no positive results
S=C([S-])NCCNC(=S)[S-].[Mn+2],Potency,TargetSites_Rat_BothSexes: all tumor bearing animals,157 mg/kg/day
COc1cc(/C=C/C(=O)OCCc2ccccc2)ccc1O,outcome,,inactive; no positive results
Nc1ccc2nc3ccccn3c2n1,Potency,"TD50_Rat_Note: TD50 is harmonic mean of more than one positive test, TargetSites_Rat_Female: clitoral gland, ear Zymbals gland, large intestine, liver, small intestine",42.3 mg/kg/day
CCC(Br)(CC)C(=O)NC(N)=O,outcome,[1],inactive; no positive results
O=C1c2ccccc2C(=O)c2c(O)c(O)cc(O)c21,Potency,,678 mg/kg/day
ClCC(Cl)(Cl)Cl,outcome,[1],inactive; no positive results
O=S(=O)([O-])[O-].[O]=[V+2],outcome,,inactive; no positive results
Nc1ccc(Nc2ccccc2)cc1,outcome,[1],inactive; no positive results
CC1=C(CC(=O)O)c2cc(F)ccc2/C1=C\c1ccc(S(C)(=O)=O)cc1,outcome,,inactive; no positive results
C=Cc1cccc(C)c1,outcome,[1],inactive; no positive results
O=C(O)CCl,outcome,[1],inactive; no positive results
C/C=C(/C)C(=O)O[C@H]1CCN2CC=C(COC(=O)[C@](O)([C@H](C)OC)C(C)(C)O)[C@H]12,Potency,"TD50_Rat_Note: TD50 is harmonic mean of more than one positive test, TargetSites_Rat_Female: hematopoietic system, liver, vascular system",0.389 mg/kg/day
ClC(Cl)=C(c1ccc(Cl)cc1)c1ccc(Cl)cc1,outcome,[1],inactive; no positive results
COc1cc(O)c2c(=O)c3c(OC)cc4c(c3oc2c1OC)C1C=COC1O4 (configuration not stated),Potency,"TD50_Rat_Note: TD50 value is overestimated as upper 99% confidence limit from study with 100% tumor incidence but no lifetable, harmoni",0.364 mg/kg/day
NNc1nc(-c2ccc([N+](=O)[O-])o2)cs1,Potency,"TD50_Rat_Note: TD50 is harmonic mean of more than one positive test, TargetSites_Rat_Female: kidney, mammary gland",3.19 mg/kg/day
COC(=O)NN,outcome,[1],inactive; no positive results
CSCCC(N)C(=O)O (configuration not stated),outcome,,inactive; no positive results
CN1[C@@H]2CC[C@H]1CC(OC(=O)C(CO)c1ccccc1)C2 (some centres not stated),outcome,[1],inactive; no positive results
O=NN1CCCN(N=O)C1,Potency,[4],0.166 mg/kg/day
O=C1O[C@@H](CN2CCOCC2)CN1/N=C/c1ccc([N+](=O)[O-])o1,Potency,"TargetSites_Rat_Female: hematopoietic system, kidney, mammary gland",6.33 mg/kg/day
CN(C)c1ccc(N=Nc2ccccc2)cc1,Potency,TargetSites_Rat_Female: liver,3.31 mg/kg/day
NC(=O)N(CCCO)N=O,Potency,[2],0.978 mg/kg/day
CN(C)Nc1nc(-c2ccc([N+](=O)[O-])o2)cs1,Potency,"TD50_Rat_Note: harmonic mean of TD50 includes a value for upper 99% confidence limit from study with 100% tumor incidence but no lifeta, TargetSites_Rat_Female: hematopoietic system, mammary gland",0.41 mg/kg/day
O=S(=O)(O)c1cc(S(=O)(=O)O)c2c(N=Nc3ccccc3)c(O)ccc2c1,outcome,[1],inactive; no positive results
c1ccccc1,Potency,"TD50_Rat_Note: TD50 is harmonic mean of more than one positive test, TargetSites_Rat_Female: ear Zymbals gland, nasal cavity, oral cavity, stomach, vascular system",169 mg/kg/day
CC(=O)CN(C)N=O,Potency,"TD50_Rat_Note: TD50 is harmonic mean of more than one positive test, TargetSites_Rat_Female: esophagus, liver, nasal cavity, oral cavity",0.0172 mg/kg/day
CN(C)c1ccc(C(=O)c2ccc(N(C)C)cc2)cc1,Potency,[3],5.64 mg/kg/day
CCCCCCN(N=O)C(N)=O,Potency,"TD50_Rat_Note: TD50 is harmonic mean of more than one positive test, harmonic mean of TD50 includes a value for upper 99% confidence li, TargetSites_Rat_Female: lung, mammary gland, stomach, uterus",0.513 mg/kg/day
CC(C)CCCCCCOC(=O)c1ccccc1C(=O)OCCCCCCC(C)C,Potency,"TD50_Rat_Note: TD50 is harmonic mean of more than one positive test, TD50_Rat_mmol was not calculated for this mixture, but Activiity S, TargetSites_Rat_Female: hematopoietic system, liver",861 mg/kg/day
